Measured values as given in PubChem BioAssay AID1996.
In brackets after ≈: the same amount, converted by molar mass.

conditions: buffer; pH 7.4; 200.0 µM

SMILES | solubility kinetic [µg/mL]
CN(CC(=O)Nc1ccccc1C(=O)NC1CC1)Cc1ccco1 | > 49.1
COc1ccc(NS(=O)(=O)c2ccc(C(=O)N3CCN(c4ccc(F)cc4)CC3)cc2)cc1 | 12.1 (≈ 25.8 µM)
CSc1cccc(NC(=S)N2CCC(N(C)C3CCCC3)CC2)c1 | > 54.5
CC1c2ccccc2N(NC(=O)Cc2ccccc2)C1C (stereo not drawn) | > 42.1
CCOc1ccc(S(=O)(=O)Nc2cnc3ccccc3c2)cc1 | > 49.3
CC(C)[C@H](NC(=O)c1ccc(Cl)c([N+](=O)[O-])c1)C(=O)O | > 45.1
CN(C(=O)COc1cccc(C#N)c1)C1CCS(=O)(=O)C1 (stereo not drawn) | > 46.3
CC(NC(=O)Nc1ccc(F)cc1)c1ccc2c(c1)OCO2 (stereo not drawn) | 3.4 (≈ 11.2 µM)
CN1CCCC(OC(=O)c2ccc(C#N)cc2)C1.Cl (stereo not drawn) | > 42.1
CC(C)NCc1cc(Br)ccc1OCc1ccccc1.Cl | > 55.6
CCOc1ccc(-c2c(=O)n(OCC)c3ccccc3[n+]2[O-])cc1 | 21.1 (≈ 64.7 µM)
COc1ccccc1NC(=O)C/C(N)=N/OCC(=O)Nc1cccc(Cl)c1 | > 58.6
O=C(CN1c2cccc3cccc(c23)S1(=O)=O)N1CCCCC1 | > 49.6
N#Cc1c(-c2ccccc2)cc(-c2ccccc2)[nH]c1=O | 0.6 (≈ 2.2 µM)
O=C(NCc1cccc(Cl)c1)c1ccc2c(c1)OCCO2 | 3.2 (≈ 10.5 µM)
CCOc1nc(Nc2ccc(Cl)cc2)nc(OCC)n1 | 3.5 (≈ 11.9 µM)
CCC1(CC)NC(=O)N(CC(=O)Nc2ccc(OCc3ccccc3)cc2)C1=O | 8.9 (≈ 22.5 µM)
O=C(CSCc1cccc(F)c1)NCc1ccccc1 | 35.2 (≈ 122 µM)
CCCNS(=O)(=O)c1ccc(OCC(=O)NCC2CCCO2)cc1 (stereo not drawn) | 51.2 (≈ 144 µM)
COc1cccc(Nc2nc(N)nc(CCl)n2)c1 | > 39.9
COc1ccc(CCN)cc1O.Cl | > 30.6
S=C(Nc1ccc(Cl)c(Cl)c1)N1CCN(c2ccccn2)CC1 | 0.9 (≈ 2.45 µM)
N#CCC(=O)Nc1ccc(C(=O)OCC(=O)N2CCN(C(=O)c3ccco3)CC2)cc1 | > 63.7
CCOc1ccccc1NC(=O)C(=O)CC(=O)c1ccc(OC)cc1 | 6.1 (≈ 17.9 µM)

SMILES | solubility kinetic [µg/mL]
Cc1cccc(SCC(=O)Nc2ccccc2[N+](=O)[O-])c1 | 3.7 (≈ 12.2 µM)
COc1cc(NS(=O)(=O)c2ccc(NC(=O)/C=C/C(=O)O)cc2)nc(OC)n1 | > 61.3
COC(=O)C1C(=O)c2c(C)noc2CC1(C)C (stereo not drawn) | > 35.6
COC(=O)C(C)(N)Cc1ccc(O)cc1.Cl (stereo not drawn) | > 36.9
NS(=O)(=O)c1ccc(NC(=O)CN2C(=O)c3ccccc3C2=O)cc1 | > 53.9
CN(CC(=O)Nc1ccc(OC(F)(F)F)cc1)C(=O)/C=C/c1ccco1 | 7.7 (≈ 20.9 µM)
COc1ccc(NC(=O)C(Cc2ccccc2)n2cccc2)cc1 (stereo not drawn) | 26.5 (≈ 82.7 µM)
Cc1nc(Cl)c2c(n1)NC(=O)CO2 | > 29.9
Cn1c(=O)n(C)c2cc(S(=O)(=O)NCC(=O)O)ccc21 | > 44.9
O=C(NCc1ccccc1Cl)c1ccc2ccccc2n1 | 6.2 (≈ 20.9 µM)
CC(C)COP(=O)(OCC(C)C)C(O)c1ccc(N(C)C)cc1 (stereo not drawn) | > 51.5
CC(=O)c1csc(-c2ccccc2)n1 | 16.6 (≈ 81.7 µM)
O=C1N=C(N2CCOCC2)S/C1=C\c1cccnc1 | > 41.3
Nc1cc(N)nc(SCC(=O)Nc2ccc3c(c2)OCO3)n1 | 47.2 (≈ 148 µM)
CC1CCCCN1Cc1cccnc1.O=C(O)C(=O)O (stereo not drawn) | > 42
N#CCSc1ncnc2ccccc12 | 28.1 (≈ 140 µM)
CCC1NC(=O)c2ccccc2N1c1cccc(Cl)c1 (stereo not drawn) | 29.8 (≈ 104 µM)
CCCC1c2ccsc2CCN1C(=S)NC (stereo not drawn) | 29.8 (≈ 117 µM)
O=[N+]([O-])c1ccc(S(=O)(=O)NCC2CC3CCC2C3)cc1 (stereo not drawn) | 5.5 (≈ 17.7 µM)
Cl.NCC(O)c1ccc(O)cc1 (stereo not drawn) | > 28.4
COc1cn(-c2ccccc2)nc1C(=O)NCc1ccccc1 | > 46.1
O=C(Cn1cc([N+](=O)[O-])ccc1=O)N1CCc2ccccc21 | 11.3 (≈ 37.8 µM)
O=C(CSc1nncs1)NC(=O)NC1CCCC1 | > 43
CCc1nnc(NC(=O)C2CSC3(C)CCC(=O)N23)s1 (stereo not drawn) | > 46.9
